Reference: US12492373B2, “Production method for nerve tissue” (Racthera Co., Ltd., priority 2014, dated 2025)

Test system: human iPS cells (1231A3 strain)
Experiment: Neural tissue / neuroepithelium formation in cell aggregates, bright field observation
Format: cell-based
Settings: for cell aggregate growth and neuroepithelium formation: step 1 for 1 day: SB431542 5 μM or LDN193189 100 nM, both U-bottom plate and F-bottom culture dish, day 19
Experimental: The above human iPS cells were treated with the cell dispersion solution by using TrypLE Select (Life Technologies), further dispersed into single cells by pipetting operation, and the above human iPS cells dispersed into single cells were suspended in 100 μl of a serum-free medium at 1.2×10^4 cells per well of a non-cell-adhesive 96-well culture plate ([…], manufactured by SUMITOMO BAKELITE), and subjected to suspension culturing at 37° C., 5% CO2. As the serum-free medium (gfCDM+KSR) therefor, a serum-free medium which is a 1:1 mixture of F-12 medium and IMDM medium supplemented with 10% KSR, 450 μM 1-monothioglycerol, 1× Chemically defined lipid concentrate was used. At the time of the start of suspension culturing (day 0 after the start of suspension culturing, start of step 2), Y27632 (final concentration 20 μM) was added to the above serum-free medium. By day 2 after the start of suspension culturing, cell aggregates were formed under both conditions with preconditioning and conditions without preconditioning (step 2 completed, step 3 start). On day 3 after the start of suspension culturing, a serum-free medium (50 μl) free of Y27632 was added. On day 6 or later after the start of suspension culturing, a half amount of the medium was changed to the above serum-free medium free of Y27632 once per 2-4 days. In the half-medium change operation, a half volume, namely 75 μl, of the medium in the culture vessel was discarded, the above fresh serum-free medium (75 μl) was added to make the total medium amount 150 μl. […]
At the time of the start of suspension culturing (day 0 after the start of suspension culturing, start of step 2), the cells were cultured under the following 2 conditions including condition 1 and condition 2. As condition 1(+SAG), at the time of the start of suspension culturing, Y27632 (final concentration 20 μM) and SAG (Shh signal transduction pathway activating substance, 300 nM) were added to the above serum-free medium. As condition 2(−SAG), at the time of the start of suspension culturing, Y27632 (final concentration 20 μM) was added to the above serum-free medium and SAG was not added. By day 2 after the start of suspension culturing, cell aggregates were formed (step 2 completed, step 3 start) under both conditions. On day 3 after the start of suspension culturing, a medium (50 μl) free of Y27632, SAG and containing human recombinant BMP4 (manufactured by R&D) was added such that the final concentration of exogenous human recombinant BMP4 was 1.5 nM (55 ng/ml). On day 6 after the start of suspension culturing, a half amount of the medium was changed with a serum-free medium free of Y27632, SAG and human recombinant BMP4. Thereafter, a half amount of the medium was changed, once every 2-4 days, with the above serum-free medium free of Y27632, SAG, and human recombinant BMP4.
The thus-prepared cells were subjected to bright field observation on day 18 after the start of suspension culturing under an inverted microscope (KEYENCE) (FIG. 15).
At the time of the start of suspension culturing (day 0 after the start of suspension culturing, start of step 2), the cells were cultured under the following 2 conditions including condition 1 and condition 2. As condition 1(+SAG), at the time of the start of suspension culturing, Y27632 (final concentration 20 μM) and SAG (Shh signal transduction pathway activating substance, final concentration 30 nM) were added to the above serum-free medium. As condition 2(−SAG), at the time of the start of suspension culturing, Y27632 (final concentration 20 μM) was added to the above serum-free medium and SAG was not added. By day 2 after the start of suspension culturing, cell aggregates were formed under both conditions (step 2 completed, step 3 start). […]

[1] = step 1 for 1 day: SB431542 5 μM, LDN193189 100 nM or SAG 300 nM, SAG 300 nM in step 2, with or without BMP4 1.5 nM in step 3, day 23
[2] = LDN193189 100 nM 1 day in step 1, day 23

Row | Compound | cell aggregate and neural tissue formation (step 1: SAG 300 nM for 24-144 hr, co-presence of A83-01 0.5 μM for the last 24 hr, SAG 30 nM added or not in step 2, day 16) | cell aggregate and neural tissue formation (step 1: SAG 300 nM for 48 or 72 hr, or A83-01 0.5 μM and SAG 300 nM for 24, 48 or 72 hr, SAG 30 nM added or not added in step 2, BMP4 1.5 nM on day 3, day 17) | cell aggregate and neural tissue formation [1] | cell aggregate growth and neuroepithelium formation (SAG 300 nM in step 2) | cell aggregate containing a neural tissue (maintained, neural tissue not less than 10%) [2] | cell aggregate with a bad form (collapsed, neural tissue not more than 3%) [2] | cell aggregate with a medium level form (maintained, neural tissue not more than 10%) [2] | neural tissue formation in step 3 [2]
1 | CNC1CCC(N(Cc2cccc(-c3ccncc3)c2)C(=O)c2sc3ccccc3c2Cl)CC1 (centres unmarked) [SAG] | a neural tissue could be formed efficiently | a neural tissue can be formed efficiently | a neural tissue can be formed efficiently |  |  |  |  | 
2 | NC(=O)c1ccc(-c2nc(-c3ccc4c(c3)OCO4)c(-c3ccccn3)[nH]2)cc1 [SB431542, 4-(5-benzol[1,3]dioxol-5-yl-4-pyridin-2-yl-1H-imidazol-2-yl)-benzamide] |  |  | a neural tissue can be formed efficiently | a cell aggregate grew and neuroepithelium was formed |  |  |  | 
3 | c1ccc2c(-c3cnn4cc(-c5ccc(N6CCNCC6)cc5)cnc34)ccnc2c1 [LDN193189, 4-[6-(4-piperazin-1-ylphenyl)pyrazolo[1,5-a]pyrimidin-3-yl]quinoline] |  |  | a neural tissue can be formed efficiently | a cell aggregate grew and neuroepithelium was formed | about 100% | about 0% | about 0% | a neural tissue having a neuroepithelial structure was formed
